Results reported in PMC3377386 (Pharmaceutical Research, 2011).
Where a name gives a salt, the structure may show the parent alone. Read-outs that look alike come from different tables or passages of the source.

Tests used:
[1] = in seven days; a similarly done study (reference not given); cited from earlier work
[2] = hairless, guinea pig, in vivo
[3] = I.V. dose of 3 mg/kg; cited from earlier work
[4] = for Css: one 50-MN array
[5] = MN + Solaraze® + 16% NTX·HCl, n=4

Compound: O=C1CC[C@@]2(O)[C@H]3Cc4ccc(O)c5c4[C@@]2(CCN3CC2CC2)[C@H]1O5 [NTX·HCl, naltrexone HCl]
- fraction of the total drug applied delivered through the skin [1]: less than 5%
- total delivery of naltrexone [2]: 2.65 mg
- systemic dose AUC [3]: 546 ng/mL/h
- delivered fraction of the dose ([4]; 2.65 mg of 80 mg NTX applied to the MN-treated area): less than 5%
- Css ([4]; MN + 16% NTX·HCl (control, no Solaraze®), n=4): 3.4 ± 1.3 ng/mL
- Tlag ([4]; MN + 16% NTX·HCl (no Solaraze®), n=4): 1.8 ± 1.5 h
- duration of increased plasma levels (Css) ([4]; MN + Solaraze® + 16% NTX·HCl gel, n=4): seven
- Tlag [4, 5]: 21.5 ± 12.6 h
- Css [4, 5]: 7.0 ± 1.5 ng/mL
- time at which NTX·HCl levels returned to baseline ([4]; control: one-time MN + 0.5 g 16% NTX·HCl, 6.7 cm^2, no Solaraze®): ≤ 60 h
- flux corresponding to the steady-state concentration ([4]; from Css of 7.0 ng/ml, 6.7 cm^2 patch): approximately 16.14 nmol/cm^2/h
